In experiment [1] the target is T1, GLEPP-1 (Homo sapiens, UniProt Q16827).
T1 construct: using the catalytic core of a human recombinant PTP, as an enzyme; made in house
T1 sequence (Q16827 938-1195 limits assumed): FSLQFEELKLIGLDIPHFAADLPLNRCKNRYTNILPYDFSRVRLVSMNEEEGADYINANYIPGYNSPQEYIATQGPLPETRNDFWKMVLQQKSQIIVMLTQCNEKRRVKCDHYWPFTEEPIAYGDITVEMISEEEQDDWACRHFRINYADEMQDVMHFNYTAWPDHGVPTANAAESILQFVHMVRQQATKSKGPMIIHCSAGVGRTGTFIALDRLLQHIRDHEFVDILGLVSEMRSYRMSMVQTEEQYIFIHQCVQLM
The experiment can be described thus: PTP Enzyme Assay (DiFMUP substrate), GLEPP-1. The format is biochemical. The conditions noted are these: catalytic core of human recombinant PTP, DiFMUP at Km; read-out: inhibition (IC50) with regard to GLEPP-1. From the text: (§1) (1) The PTP Enzyme Assay (In Vitro Assay)
(§2) The PTP Enzyme Assay aims at determining the extent of inhibition of the examined PTP (e.g. PTP1B, TC-PTP, PTP-β, DEP-1, LAR, SHP-1, SHP-2, GLEPP-1, PTP-κ, PTP-μ, VHR, hVH5) in the presence of a test compound. The inhibition is illustrated by IC50 values which denote the concentration necessary to achieve an inhibition of 50% of the given PTP.
(§3) The cloning and expression of the catalytic domain of PTPs (e.g. PTP1B, TC-PTP, PTP-β, DEP-1, LAR, SHP-1, SHP-2, GLEPP-1, PTP-κ, PTP-μ, VHR, hVH5) may be performed as described in J. Biol. Chem. 2000, 275(13), pp 9792-9796.
(§4) Assays were performed in a 96 well plate format, using the catalytic core of a human recombinant PTP, as an enzyme and 6,8-DiFluoro-4-MethylUmbelliferyl Phosphate (DiFMUP, Molecular Probes, D-6567) as a substrate at the Km value which was determined for each enzyme. Compounds to be tested were dissolved in 100% DMSO at a concentration of 2 mM. […] The reaction ran for 30 minutes at room temperature before reading the fluorescence intensity on a Perkin-Elmer Victor 2 spectrofluorimeter (excitation at 355 nm, emission at 460 nm, for 0.1 s). The percentage of inhibition relative to the fluorescence observed in the presence of solvent (5% DMSO) alone was determined. The IC50 values for inhibition were determined in triplicates on at least 3 separate occasions.

Experiment [2] addresses T2, PTP1B (Homo sapiens, UniProt P18031).
T2 construct: using the catalytic core of a human recombinant PTP, as an enzyme; made in house
T2 sequence (P18031 3-277 limits assumed): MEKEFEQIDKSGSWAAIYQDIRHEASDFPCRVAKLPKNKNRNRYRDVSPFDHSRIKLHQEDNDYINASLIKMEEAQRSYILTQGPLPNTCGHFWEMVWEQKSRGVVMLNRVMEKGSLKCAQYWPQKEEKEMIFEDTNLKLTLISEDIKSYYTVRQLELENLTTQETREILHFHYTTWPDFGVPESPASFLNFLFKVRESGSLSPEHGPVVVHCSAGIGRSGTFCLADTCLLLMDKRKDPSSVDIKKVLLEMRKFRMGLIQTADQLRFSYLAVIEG
The experiment can be described thus: PTP Enzyme Assay (DiFMUP substrate), PTP1B. Format: biochemical. The conditions noted are these: catalytic core of human recombinant PTP, DiFMUP at Km; read-out: inhibition (IC50) with regard to PTP1B.
Source text: as §1, §2, §3, §4

Molecules are shown by their SMILES.

Broadly, the IC50 is the concentration that gives 50% inhibition. For `O=C1NN(c2ccc(I)cc2)C(=O)C1=Cc1ccc(Br)o1` [Compound 25, 4-(5-Bromo-furan-2-ylmethylene)-1-(4-iodo-phenyl)-pyrazolidine-3,5-dione], the concentration for half-maximal inhibition (IC50) is approximately 130 nM in experiment [1] and 40 nM in experiment [2].

Regarding `O=C1NN(c2ccc(I)cc2)C(=O)C1=Cc1cc(Br)c(O)c2ncccc12` [Compound 35], the concentration for half-maximal inhibition (IC50) in experiment [2] was found to be 580 nM.

Turning to `O=C1NN(c2ccc(I)cc2)C(=O)C1=Cc1ccc([N+](=O)[O-])o1` [Compound 45, 1-(4-Iodo-phenyl)-4-(5-nitro-furan-2-ylmethylene)-pyrazolidine-3,5-dione], the IC50 in experiment [1] was 47 nM.

The values are drawn from patent US20040220188A1, “Alkylidene pyrazolidinedione derivatives” (priority 2001, published 2004).
